# In patent publication US10238670B2, “9-aminomethyl minocycline compounds and methods of use thereof in urinary tract infection (UTI) treatment” (Paratek Pharmaceuticals, Inc., priority 2016, dated 2019):
# Experiments:
# Assay in all cases: In vitro MIC, 2010 surveillance isolates
# E. coli ESBL− = assay type: cell-based, Escherichia coli
# E. coli ESBL+ = assay type: cell-based, Escherichia coli
# K. pneumoniae ESBL− = assay type: cell-based, Klebsiella pneumoniae
# K. pneumoniae ESBL+ = assay type: cell-based, Klebsiella pneumoniae
# K. oxytoca = assay type: cell-based
# E. cloacae CeftazS = assay type: cell-based
# E. cloacae CeftazR = assay type: cell-based
# Enterobacter spp = assay type: cell-based
# A. baumanii = assay type: cell-based
# Acinetobacter spp = assay type: cell-based
# MSSA = assay type: cell-based
# MRSA = assay type: cell-based
# MS CoNS = assay type: cell-based, Coagulase-Negative Staphylococcus
# MR CoNS = assay type: cell-based, Coagulase-Negative Staphylococcus
substance,measurement,setting,value
Gentamicin,% R (resistance),"E. coli ESBL−; Asia/Pac, Eucast breakpoints",16.3%
same,MIC90,"E. coli ESBL−; Asia/Pac, N=282",> 8 µg/mL
same,% R (resistance),"E. coli ESBL−; Europe, Eucast breakpoints",7.4%
same,MIC90,"E. coli ESBL−; Europe, N=1533",2 µg/mL
same,% R (resistance),"E. coli ESBL−; L. Amer, CLSI breakpoints",9%
same,MIC90,"E. coli ESBL−; L. Amer, N=389",2 µg/mL
same,% R (resistance),"E. coli ESBL−; N America, CLSI breakpoints",7.7%
same,MIC90,"E. coli ESBL−; N America, N=1172",2 µg/mL
same,% R (resistance),"E. coli ESBL+; Asia/Pac, Eucast breakpoints",58.9%
same,MIC90,"E. coli ESBL+; Asia/Pac, N=219",> 8 µg/mL
same,% R (resistance),"E. coli ESBL+; Europe, Eucast breakpoints",40.5%
same,MIC90,"E. coli ESBL+; Europe, N=274",> 8 µg/mL
same,% R (resistance),"E. coli ESBL+; L. Amer, CLSI breakpoints",39.3%
same,MIC90,"E. coli ESBL+; L. Amer, N=168",> 8 µg/mL
same,% R (resistance),"E. coli ESBL+; N America, CLSI breakpoints",26.1%
same,MIC90,"E. coli ESBL+; N America, N=134",> 8 µg/mL
same,% R (resistance),"K. pneumoniae ESBL−; Asia/Pac, Eucast breakpoints",3.7%
same,MIC90,"K. pneumoniae ESBL−; Asia/Pac, N=189",≤ 1 µg/mL
same,% R (resistance),"K. pneumoniae ESBL−; Europe, Eucast breakpoints",2.2%
same,MIC90,"K. pneumoniae ESBL−; Europe, N=361",≤ 1 µg/mL
same,% R (resistance),"K. pneumoniae ESBL−; L. Amer, CLSI breakpoints",1.3%
same,MIC90,"K. pneumoniae ESBL−; L. Amer, N=160",≤ 1 µg/mL
same,% R (resistance),"K. pneumoniae ESBL−; N America, CLSI breakpoints",1.2%
same,MIC90,"K. pneumoniae ESBL−; N America, N=671",≤ 1 µg/mL
same,% R (resistance),"K. pneumoniae ESBL+; Asia/Pac, Eucast breakpoints",58.1%
same,MIC90,"K. pneumoniae ESBL+; Asia/Pac, N=124",> 8 µg/mL
same,% R (resistance),"K. pneumoniae ESBL+; Europe, Eucast breakpoints",58.3%
same,MIC90,"K. pneumoniae ESBL+; Europe, N=151",> 8 µg/mL
same,% R (resistance),"K. pneumoniae ESBL+; L. Amer, CLSI breakpoints",56.9%
same,MIC90,"K. pneumoniae ESBL+; L. Amer, N=209",> 8 µg/mL
same,% R (resistance),"K. pneumoniae ESBL+; N America, CLSI breakpoints",46.3%
same,MIC90,"K. pneumoniae ESBL+; N America, N=108",> 8 µg/mL
same,% R (resistance),"K. oxytoca; Asia/Pac, Eucast breakpoints",17.6%
same,MIC90,"K. oxytoca; Asia/Pac, N=17",> 8 µg/mL
same,% R (resistance),"K. oxytoca; Europe, Eucast breakpoints",8.2%
same,MIC90,"K. oxytoca; Europe, N=158",≤ 1 µg/mL
same,% R (resistance),"K. oxytoca; L. Amer, CLSI breakpoints",12%
same,MIC90,"K. oxytoca; L. Amer, N=25",> 8 µg/mL
same,% R (resistance),"K. oxytoca; N America, CLSI breakpoints",2.3%
same,MIC90,"K. oxytoca; N America, N=177",≤ 1 µg/mL
same,% R (resistance),"E. cloacae CeftazS; Asia/Pac, Eucast breakpoints",6%
same,MIC90,"E. cloacae CeftazS; Asia/Pac, N=100",≤ 1 µg/mL
same,% R (resistance),"E. cloacae CeftazS; Europe, Eucast breakpoints",1.1%
same,MIC90,"E. cloacae CeftazS; Europe, N=183",≤ 1 µg/mL
same,% R (resistance),"E. cloacae CeftazS; L. Amer, CLSI breakpoints",12.3%
same,MIC90,"E. cloacae CeftazS; L. Amer, N=57",> 8 µg/mL
same,% R (resistance),"E. cloacae CeftazS; N America, CLSI breakpoints",0%
same,MIC90,"E. cloacae CeftazS; N America, N=210",≤ 1 µg/mL
same,% R (resistance),"E. cloacae CeftazR; Asia/Pac, Eucast breakpoints",39.7%
same,MIC90,"E. cloacae CeftazR; Asia/Pac, N=63",> 8 µg/mL
same,% R (resistance),"E. cloacae CeftazR; Europe, Eucast breakpoints",43.1%
same,MIC90,"E. cloacae CeftazR; Europe, N=72",> 8 µg/mL
same,% R (resistance),"E. cloacae CeftazR; L. Amer, CLSI breakpoints",38.1%
same,MIC90,"E. cloacae CeftazR; L. Amer, N=42",> 8 µg/mL
same,% R (resistance),"E. cloacae CeftazR; N America, CLSI breakpoints",20.8%
same,MIC90,"E. cloacae CeftazR; N America, N=77",> 8 µg/mL
same,% R (resistance),"Enterobacter spp; Asia/Pac, Eucast breakpoints",7.7%
same,MIC90,"Enterobacter spp; Asia/Pac, N=52",≤ 1 µg/mL
same,% R (resistance),"Enterobacter spp; Europe, Eucast breakpoints",4.9%
same,MIC90,"Enterobacter spp; Europe, N=82",≤ 1 µg/mL
same,% R (resistance),"Enterobacter spp; L. Amer, CLSI breakpoints",9.5%
same,MIC90,"Enterobacter spp; L. Amer, N=42",2 µg/mL
same,MIC90,"Enterobacter spp; N America, N=101",≤1 (1)
same,% R (resistance),"A. baumanii; Asia/Pac, Eucast breakpoints",80%
same,MIC90,"A. baumanii; Asia/Pac, N=275",> 8 µg/mL
same,% R (resistance),"A. baumanii; Europe, Eucast breakpoints",61.4%
same,MIC90,"A. baumanii; Europe, N=145",> 8 µg/mL
same,% R (resistance),"A. baumanii; L. Amer, CLSI breakpoints",52.4%
same,MIC90,"A. baumanii; L. Amer, N=275",> 8 µg/mL
same,% R (resistance),"A. baumanii; N America, CLSI breakpoints",57.8%
same,MIC90,"A. baumanii; N America, N=154",> 8 µg/mL
same,% R (resistance),"Acinetobacter spp; Asia/Pac, Eucast breakpoints",33.3%
same,% R (resistance),"Acinetobacter spp; Europe, Eucast breakpoints",32.6%
same,MIC90,"Acinetobacter spp; Europe, N=43",> 8 µg/mL
same,% R (resistance),"Acinetobacter spp; L. Amer, CLSI breakpoints",22.2%
same,% R (resistance),"Acinetobacter spp; N America, CLSI breakpoints",14.3%
same,MIC90,"Acinetobacter spp; N America, N=42",> 8 µg/mL
same,% R (resistance),"MSSA; Asia/Pac, Eucast breakpoints",8.4%
same,MIC90,"MSSA; Asia/Pac, N=641",≤ 1 µg/mL
same,% R (resistance),"MSSA; Europe, Eucast breakpoints",2.7%
same,MIC90,"MSSA; Europe, N=2109",≤ 1 µg/mL
same,% R (resistance),"MSSA; L. Amer, CLSI breakpoints",1.9%
same,MIC90,"MSSA; L. Amer, N=590",≤ 1 µg/mL
same,% R (resistance),"MSSA; N America, CLSI breakpoints",0.7%
same,MIC90,"MSSA; N America, N=2373",≤ 1 µg/mL
same,% R (resistance),"MRSA; Asia/Pac, Eucast breakpoints",58.6%
same,MIC90,"MRSA; Asia/Pac, N=428",> 8 µg/mL
same,% R (resistance),"MRSA; Europe, Eucast breakpoints",23.1%
same,MIC90,"MRSA; Europe, N=750",> 8 µg/mL
same,% R (resistance),"MRSA; L. Amer, CLSI breakpoints",35.4%
same,MIC90,"MRSA; L. Amer, N=506",> 8 µg/mL
same,% R (resistance),"MRSA; N America, CLSI breakpoints",3.7%
same,MIC90,"MRSA; N America, N=2508",≤ 1 µg/mL
same,% R (resistance),"MS CoNS; Asia/Pac, Eucast breakpoints",33.3%
same,MIC90,"MS CoNS; Asia/Pac, N=18",4 µg/mL
same,% R (resistance),"MS CoNS; Europe, Eucast breakpoints",9.7%
same,MIC90,"MS CoNS; Europe, N=185",≤ 1 µg/mL
same,% R (resistance),"MS CoNS; L. Amer, CLSI breakpoints",7.5%
same,MIC90,"MS CoNS; L. Amer, N=67",8 µg/mL
same,% R (resistance),"MS CoNS; N America, CLSI breakpoints",2.1%
same,MIC90,"MS CoNS; N America, N=191",≤ 1 µg/mL
same,% R (resistance),"MR CoNS; Asia/Pac, Eucast breakpoints",72.7%
same,MIC90,"MR CoNS; Asia/Pac, N=77",> 8 µg/mL
same,% R (resistance),"MR CoNS; Europe, Eucast breakpoints",56.2%
same,MIC90,"MR CoNS; Europe, N=510",> 8 µg/mL
same,% R (resistance),"MR CoNS; L. Amer, CLSI breakpoints",33.2%
same,MIC90,"MR CoNS; L. Amer, N=301",> 8 µg/mL
same,% R (resistance),"MR CoNS; N America, CLSI breakpoints",22.6%
same,MIC90,"MR CoNS; N America, N=461",> 8 µg/mL
